In US20120148695A1, “Pharmaceutical Compositions From Carapa Guianensis” (priority 2004, published 2012):
“Also recorded” adds a separate entry of the source.

Legend:
[1] = system: edema of paw induced by bradykinin; test: edema of paw induced by bradykinin; assay type: in vivo, Wistar rats; settings: HOE 140 10 nmol/paw intraplant
Description: Wistar rats were stimulated through intraplant injection of 10 nmol/paw of bradykinin (BK) in one of the rear paws at the volume of 50 μL/paw (Henriques, 1991). In the counter-lateral paw was injected the same volume of vehicle (sterile saline free of pyrogens). The stimulus was performed in non-treated animals and in animals pre-treated through of an intraplant injection of 10 nmol/paw of antagonist to bradykinin HOE 140 at the volume of 50 μL. Thirty minutes after the stimulus, the edema was analyzed on the digital plethysmograph, through the displacement of fluid (0.5 g NaCl; 3 mL Extran 100%/1 L) produced by insertion of each paw in the measurement tray. Each analysis was performed 3 times.

[2] = system: hyperalgesia induced by carrageenin; test: hyperalgesia induced by carrageenin (hot plate); assay type: in vivo, Wistar rats; settings: dipyrone 100 mg/Kg p.o.
Description: (§1) The […] activity was evaluated through an essay of hyperalgesia, performed in a heated plate (Hot Plate, Ugo Basile-Italia model DS-37), with male Wistar rats. The essay is performed through placement of the animals on the hot plate, limited by an acrylic dome of approximately 18 cm in diameter by 40 cm in height.
The induction of hyperalgesic state was performed through the intraplant injection of 800 μg/paw of carrageenin in Wistar rats in one of the rear paws, at the final volume of 100 μL/paw. In the counter-lateral paw the same volume of vehicle (sterile saline free of pyrogens) was injected. The stimulus was performed in animals non-treated and in animals pre-treated with dipyrone (100 mg/Kg, p.o.). Three hours after the stimulus, the animals were placed in a hot plate at 52.5±0.5° C., and two chronometers are set to record the latency of response of withdrawal of each rear paw. Results were expressed in terms of variation of latency of withdrawal of left and right side paws, measured in seconds.

[3] = system: edema of paw induced by carrageenin; test: edema of paw induced by carrageenin; assay type: in vivo, Swiss mice; settings: diclophenac 100 mg/Kg oral; carrageenin 300 μg/paw
Description: (§2) The animals were stimulated through intraplant injection of stimulus (zimosan or carrageenin) in one of rear paws with the volume of 50 μL/paw. Doses used were: 500 μg/paw of zimosan and 300 μg/paw of carrageenin. In the counter-lateral the same volume of vehicle was injected (sterile saline free of pyrogens). Four hours after the stimulus, the edema was analyzed at the digital plethysmograph, through of displacement of fluid (0.5 g NaCl; 3 mL Extran 100%/1 L) produced by insertion of each paw in the measurement tray. Each Analysis was performed 3 times.

[4] = system: edema of paw induced by zimosan; test: edema of paw induced by zimosan; assay type: in vivo, Swiss mice; settings: diclophenac 100 mg/Kg oral; zimosan 500 μg/paw
Description: as §2

[5] = system: pleurisis induced by carrageenin; test: pleurisis induced by carrageenin; assay type: in vivo, Swiss mice; settings: diclophenac 100 mg/Kg p.o.; 4 h
Description: Pleurisis was induced through intra-thoracic injection (i.t) of carrageenin (300 μg/cavity) at the final volume of 100 μL (Henriques and col., 1991). The control group received 100 μL of vehicle (sterile saline). Four hours after the stimulus, the animals were sacrificed in of CO2 chamber, their thoracic pleural were exposed and washed with phosphate tampon (PBS) heparinized (20 UI/mL). The pleural cavity of the animals was washed with the help of an automatic pipette, at the volume of 1 mL. The pleural wash was collected and centrifuged (740 g, 10 minutes) to remove cells for posterior evaluation of the proteic exudation, as described as follows. Mice were previously injected intravenously at their orbital plexus with Evans blue 1% (25 mg/Kg), and a proteic exudation was evaluated through of overflowing of Evans blue, through spectrophotometer at λ 600 nm. The concentration of Evans blue was determined comparing the optical density (D.O.) of washes with a pattern curve of Evans blue (of 25.6 a 0.2 μg/mL). Results were expressed as μg/mL of Evans blue. The count of the number of total leucocytes in the pleural wash was made with the help of a Neubauer chamber as of a quota removed from the pleural wash, diluted 40 times in Turk liquid for the lise of erythrocytes. […] Results are expressed as number of cells (×10^6) by cavity.

[6] = system: edema of paw induced by egg albumin in sensitized mice; test: allergic edema of paw induced by egg albumin, oral pre-treatment; assay type: in vivo, Swiss mice; settings: promethazine 30 mg/Kg oral, 1 h before, egg albumin 3 μg/paw
Description: This essay was made in animals previously sensitized through an subcutaneous injection (s.c.) in the dorsal region with 200 μL of a suspension containing 50 μg of egg albumin+5 mg (Al(OH)3) diluted in sterile saline free or pyrogens (200 μL/animal). The edema of paw was induced by an intraplant paw injection of egg albumin (3 μg/paw, no final volume of 50 μL) in one of the back paws, fourteen days after sensitization. The counter-lateral paw received an injection with the same volume of the vehicle (solution saline). The edema was analyzes in a digital plethysmograph, through the displacement of fluid (0.5 g NaCl; 3 mL Extran 100%/1 L) produced by the insertion of the paw in test in the measurement tray. Each analysis was performed 3 times. […]
For evaluation of the anti-allergenic activity of the oil of Carapa guianensis, the dosages of 200 and 400 mg/Kg were tested for mice and 150 and 300 mg/Kg for rats, depending on the model tested. […] The results were expressed as mean and pattern error of the mean and (AND.P.M.), and statistically analyzed through the analysis of the variance (ANOVA), followed by test of multiple comparisons of Newman-Kewls, or T of Student test with a level of significance minor or equal to 0.05 (p≦0.05).

[7] = system: edema of paw induced by histamine; test: edema of paw induced by histamine, oral pre-treatment; assay type: in vivo, Swiss mice; settings: mice; promethazine 30 mg/Kg p.o.
Description: The animals were stimulated through interplant injection of stimulus (histamine, bradikinin and PAF—platelet-activating factor) in one of the rear paws with volumes of 50 or 100 μL/paw for mice or rats, respectively. The dosages used were: 100 μg/paw of histamine, 10 nmol/paw of bradykinin and 1 μg/paw of PAF (we notice that only bradykinin was injected in a volume of 50 μL). On the counter-lateral side of the paw the same volume of the vehicle (saline sterile free of pyrogen). Thirty minutes or one hour after the stimulus, the edema was analyzed at the digital plethysmograph, through of displacement of fluid (0.5 g NaCl; 3 mL Extran 100%/1 L) produced by the insertion of each paw in the measurement tray. Each analysis was performed 3 times.
(§3) The treatments with oil or tetranortriterpenoids were performed orally (p.o) 1 hour before the stimulation in conscious animals, kept in a previous fasting of 12 hours with free access to water. The treatment solutions were administered with the help of a curve needle with spherical end, with volumes of 200 μL or 400 μL for mice (of 25 g) or rats (of 200 g). The doses used were 200 or 400 mg/Kg for mice and 150 or 300 mg/Kg for rats. The tetranortriterpenoids were administered in doses of 12.5; 25; 50; 100 and 200 mg/Kg. […]

[8] = system: ear edema induced by histamine; test: edema of ear induced by histamine (Evans blue); assay type: in vivo, mice; settings: promethazine 10 mg/Kg p.o.; 30 minutes
Description: The ear edema was induced in anesthetized mice (pentobarbital 40 mg/kg, via intravenous, i.v.) with an intravenous injection (i.v.) in the orbital plexus of Evans blue 1% (25 mg/Kg), 24 hours before the stimulus. […] Thirty minutes after the stimulus, the animals were sacrificed in the chamber of CO2, and their ears were removed and placed in formamide (500 μL/ear) for 24 hours for the extraction of Evans blue. The concentration of Evans blue in the supernatant was analyzed through spectrophotometer (SpectraMax®) at λ 600 nm. The concentration of Evans blue is determined comparing the optical density é (D.O.) of a pattern curve (from 25.6 to 0.2 μg/mL).
as §3

[9] = system: pleural exudation induced by histamine; test: pleurisy induced by histamine, pleural exudation (Evans blue); assay type: in vivo, Swiss mice; settings: promethazine 30 mg/Kg p.o.; histamine 100 μg/cavity
Description: The pleurisy was induced through intra-thoracic injection (i.t) of histamine (100 μg/cavity) at the final volume of 100 μL. The control group received 100 μL of vehicle (sterile saline). One hour after the stimulus, the animals were sacrificed in a chamber CO2, their thoracic cavities were exposed and washed with phosphate tampon (PBS) heparinized (20 UI/mL). The pleural cavity of the animals was washed with the help of an automatic pipette, with volumes of 1 and 3 mL for mice and rats, respectively. The pleural wash was collected and centrifuged (740 g, 10 minutes) to remove the cells for posterior evaluation of the proteic exudation, as described as follows. In experiences made with mice, they were previously intravenously injected with Evans blue 1% (25 mg/Kg), at the orbital plexus and the proteic exudation was evaluated through overflow of Evans blue, through spectrophotometer at λ 600 nm. The concentration of Evans blue was determined comparing the optical density (D.O.) of washes with a pattern curve of Evans blue (of 25.6 a 0.2 μg/mL). Results were expressed as μg/mL of Evans blue. For analysis in rats, the exudation of pleural wash was evaluated by the measure of the volume collected from the cavity with the help of a graded syringe and the overflow of proteins was evaluated by the quantification of proteins at the supernatant by the method of Lowry (Lowry et al., 1951). […]

[10] = system: hyperalgesia induced by histamine; test: hyperalgesia induced by histamine (hot plate); assay type: in vivo, Wistar rats; settings: promethazine 30 mg/Kg p.o.
Description: as §1
The induction of a hyperalgesic state was performed through intraplant injection of 100 μg/paw of histamine in Wistar rats in one of the rear paws, at the final volume of 100 μL/paw. In the counter-lateral paw the same volume of vehicle (sterile saline free of pyrogens) was injected. The stimulus was performed in animals non-treated and in animals pre-treated with promethazine (30 mg/Kg, p.o.). Thirty minutes after the stimulus, the animals were placed in a hot plate at 52.5±0.5° C., and two chronometers are set to record the latency of response of withdrawal of each rear paw. Results were expressed in terms of variation of latency of withdrawal of left and right side paws, measured in seconds.
The induction of a hyperalgesic state was performed through intraplant injection of 100 μg/paw of histamine in Wistar rats in one of the rear paws, at a final volume of 100 μL/paw. […] Results were expressed in terms of variation of latency of withdrawal of left and right side paws, measured in seconds.

[11] = system: edema of paw induced by PAF; test: edema of paw induced by platelet activation factor (PAF); assay type: in vivo, Swiss mice; settings: WEB 2170 16 mg/Kg oral; PAF 1 μg/paw
Description: Swiss mice were stimulated through intraplant injection of 1 μg/paw of platelet activation factor (PAF) in one of the rear paws at the volume of 50 μL/paw. In the counter-lateral paw the same volume of vehicle injected (sterile saline free of pyrogens). The stimulus was performed in non-treated animals and animals pre-treated with 16 mg/Kg of antagonist to PAF WEB 2170 (p.o., 100 μL). Thirty minutes after the stimulus, the edema was analyzed by the digital plethysmograph, through the displacement of fluid (0.5 g NaCl; 3 mL Extran 100%/1 L) produced by insertion of each paw in the measurement tray. Each analysis was performed 3 times.

## HOE 140
[1]
  edema of paw induced by bradykinin: inhibition of edema

## Cc1c(N(C)CS(=O)(=O)[O-])c(=O)n(-c2ccccc2)n1C.[Na+] [dipyrone]
[2]
  hyperalgesia induced by carrageenin: inhibition of hyperalgesia

## O=C([O-])Cc1ccccc1Nc1c(Cl)cccc1Cl.[K+] [diclophenac, diclophenac of potassium]
[3]
  edema of paw induced by carrageenin: inhibition
[4]
  edema of paw induced by zimosan: inhibition
[5]
  proteic overflow induced by carrageenin in pleural cavity: able to significantly inhibit the proteic overflow induced by carrageenin

## CC(CN1c2ccccc2Sc2ccccc21)N(C)C (centres unmarked) [promethazine]
[6]
  allergic edema of paw induced by egg albumin: significantly inhibited; also recorded: inhibition of edema
[7]
  edema of paw induced by histamine: inhibited
[8]
  ear edema induced by histamine: able to significantly inhibit the edema induced by histamine
[9]
  proteic overflow in pleurisis induced by histamine: able to significantly inhibit the proteic overflow induced by histamine
[10]
  hyperalgesia induced by histamine: inhibition of hyperalgesia

## Cc1nnc2n1-c1sc3c(c1C(c1ccccc1Cl)=NC2)CC(C(=O)N1CCOCC1)C3 (centres unmarked) [WEB 2170]
[11]
  edema of paw induced by PAF: inhibition of edema
